Results as given in US4468511A, “C-20- And C-23-Modified macrolide derivatives” (Eli Lilly and Company, priority 1983, dated 1984).
Values after ≈ are worked out from the molar mass of the structure shown. Read-outs that look alike come from different tables or passages of the source.

Tests used:
[1] = system: Streptococcus pyogenes C203; assay: Protection of mice experimentally infected with S. pyogenes C203; assay type: in vivo;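 further: two doses given 1 and 4 hours after infection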
Experimental: Some of the derivatives of this invention have shown in vivo antimicrobial activity against experimentally-induced infections in laboratory animals. When two doses of test compound were administered to mice experimentally infected with S. pyogenes C203, the activity observed was measured as an ED50 value [effective dose in mg/kg to protect 50% of the test animals: see Warren Wick, et al., J. Bacteriol. 81, 233-235 (1961)].

[2] = system: Staphylococcus aureus X400; assay: MIC, standard agar-dilution assay; assay type: cell-based; conditions: Staphylococcus aureus, X400
Experimental: (§1) The MIC's in Table II were determined by standard agar-dilution assays. The MIC's in Table III were obtained using a conventional broth-dilution microtiter test.

[3] = system: Haemophilus influenzae 76; assay: MIC, standard agar-dilution assay; assay type: cell-based; conditions: Haemophilus influenzae, 76
Experimental: as §1

[4] = system: Haemophilus influenzae C.L.; assay: MIC, standard agar-dilution assay; assay type: cell-based; conditions: Haemophilus influenzae
Experimental: as §1

[5] = system: Staphylococcus epidermidis EPI2; assay: MIC, standard agar-dilution assay; assay type: cell-based; conditions: Staphylococcus epidermidis, EPI2
Experimental: as §1

[6] = system: Streptococcus pneumoniae Park I; assay: MIC, standard agar-dilution assay; assay type: cell-based; conditions: Streptococcus pneumoniae
Experimental: (§2) Certain of the derivatives are active against some gram-negative bacteria, such as Pasteurella species. The MIC's in Table II were determined by standard agar-dilution assays. The MIC's in Table III were obtained using a conventional broth-dilution microtiter test.

[7] = system: Klebsiella pneumoniae X26; assay: MIC, standard agar-dilution assay; assay type: cell-based; conditions: Klebsiella pneumoniae, X26
Method in brief: (§3)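 MICs for the two Pasteurella strains and the Mycoplasma strain were read from a broth-dilution microtiter test. The Klebsiella strain was tested on agar instead.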

[8] = system: Escherichia coli EC14; assay: MIC, standard agar-dilution assay; assay type: cell-based; conditions: Escherichia coli, EC14
Experimental: as §2

[9] = system: Klebsiella pneumoniae KAE; assay: MIC, standard agar-dilution assay; assay type: cell-based; conditions: Klebsiella pneumoniae
Method in brief: (§4)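 Method depends on organism. Klebsiella pneumoniae was assayed on agar. Pasteurella spp. and Mycoplasma gallisepticum were assayed in broth microtiter dilution.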

[10] = system: Escherichia coli TEM; assay: MIC, standard agar-dilution assay; assay type: cell-based; conditions: Escherichia coli
Method in brief: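 Minimum inhibitory concentrations against Escherichia coli were measured with a standard agar-dilution method. The result for each derivative is the lowest concentration that inhibits bacterial growth, given in ug/mL.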

[11] = system: Streptococcus pyogenes C203; assay: MIC, standard agar-dilution assay; assay type: cell-based; conditions: Streptococcus pyogenes, C203
Experimental: as §2

[12] = system: Streptococcus Group D X66; assay: MIC, standard agar-dilution assay; assay type: cell-based
Experimental: as §2

[13] = system: Staphylococcus aureus X1.1; assay: MIC, standard agar-dilution assay; assay type: cell-based; conditions: Staphylococcus aureus, X1.1
Method in brief: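 Minimum inhibitory concentration against Staphylococcus aureus strain X1.1 was measured with a standard agar-dilution method. The result is reported as the MIC in ug/mL, i.e. the lowest compound concentration in agar that prevents visible growth of this organism.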

[14] = system: Streptococcus pyogenes 9960; assay: MIC, standard agar-dilution assay; assay type: cell-based; conditions: 9960
Experimental: as §2

[15] = system: Staphylococcus aureus V41; assay: MIC, standard agar-dilution assay; assay type: cell-based; conditions: Staphylococcus aureus, V41
Experimental: as §2

[16] = system: Staphylococcus aureus S13E; assay: microbe, parasite or virus in culture; assay type: cell-based
Experimental: as §1

[17] = system: Staphylococcus epidermidis EPI1; assay: microbe, parasite or virus in culture; assay type: cell-based; conditions: Staphylococcus epidermidis, EPI1
Experimental: as §1

[18] = system: Mycoplasma gallisepticum; assay: MIC, conventional broth-dilution microtiter test; assay type: cell-based; conditions: Mycoplasmoides gallisepticum
Method in brief: as §4

[19] = system: Mycoplasma gallisepticum 41313; assay: MIC, conventional broth-dilution microtiter test; assay type: cell-based; conditions: Mycoplasmoides gallisepticum, 41313
Method in brief: as §4

[20] = system: Pasteurella multocida 40G; assay: MIC, conventional broth-dilution microtiter test; assay type: cell-based; conditions: Pasteurella multocida, 40G
Method in brief: as §4

[21] = system: Pasteurella hemolytica 22C; assay: MIC, conventional broth-dilution microtiter test; assay type: cell-based; conditions: Pasteurella, 22C
Method in brief: as §4

[22] = system: Pasteurella multocida 17E; assay: MIC, conventional broth-dilution microtiter test; assay type: cell-based; conditions: Pasteurella multocida, 17E
Method in brief: as §4

[23] = system: Pasteurella multocida 22A; assay: MIC, conventional broth-dilution microtiter test; assay type: cell-based; conditions: Pasteurella multocida, 22A
Method in brief: as §4

[24] = system: Mycoplasma synoviae; assay: MIC, conventional broth-dilution microtiter test; assay type: cell-based; conditions: Mycoplasmopsis synoviae
Method in brief: as §3

[25] = system: Pasteurella multocida 68C; assay: MIC, conventional broth-dilution microtiter test; assay type: cell-based; conditions: Pasteurella multocida, 68C
Method in brief: as §4

[26] = system: Streptococcus sp. 80; assay: MIC, conventional broth-dilution microtiter test; assay type: cell-based; conditions: Streptococcus, SP.80
Experimental: as §2

[27] = system: Pasteurella hemolytica 23C; assay: MIC, conventional broth-dilution microtiter test; assay type: cell-based; conditions: Pasteurella, 23C
Method in brief: as §4

[28] = system: Mycoplasma gallisepticum 34159; assay: MIC, conventional broth-dilution microtiter test; assay type: cell-based; conditions: Mycoplasmoides gallisepticum, 34159
Method in brief: as §4

[29] = system: Staphylococcus aureus; assay: MIC, conventional broth-dilution microtiter test; assay type: cell-based
Experimental: as §2

[30] = system: Mycoplasma hyorhinis; assay: MIC, conventional broth-dilution microtiter test; assay type: cell-based; conditions: Mycoplasma
Method in brief: as §3

[31] = system: Pasteurella multocida 60A; assay: MIC, conventional broth-dilution microtiter test; assay type: cell-based; conditions: Pasteurella multocida, 60A
Method in brief: as §4

[32] = system: Pasteurella hemolytica 41D; assay: MIC, conventional broth-dilution microtiter test; assay type: cell-based; conditions: Pasteurella, 41D
Method in brief: as §4

With `CCC1CC(C)C(=O)C=CC(C)=CC(COC(=O)Cc2ccccc2)C(CC)OC(=O)CC(O)C(C)C1OC1OC(C)C(O)C(N(C)C)C1O` (stereo not drawn) [Compound 41, 23-O-Phenylacetyl-20-deoxy-20-dihydro-OMT] the ED50 ([1]; C203, po, read-out: ED50 Oral) was greater than 100 mg/kg, the ED50 ([1]; C203, sc, read-out: ED50 Subcutaneous) was greater than 25 mg/kg and the MIC [2] was 0.5 µg/mL (≈ 0.712 µM). It also gave an MIC [3] of 8 µg/mL (≈ 11.4 µM), an MIC [4] of 8 µg/mL (≈ 11.4 µM) and an MIC [5] of 0.5 µg/mL (≈ 0.712 µM). It also gave an MIC [6] of 0.25 µg/mL (≈ 0.356 µM), an MIC [7] of 4 µg/mL (≈ 5.7 µM) and an MIC [8] of 128 µg/mL (≈ 182 µM). For the same compound, the MIC [9] was greater than 128 µg/mL, the MIC [10] was 16 µg/mL (≈ 22.8 µM) and the MIC [11] was 0.5 µg/mL (≈ 0.712 µM). The MIC [12] was 1 µg/mL (≈ 1.42 µM), the MIC [13] was 0.5 µg/mL (≈ 0.712 µM) and the MIC [14] was 1 µg/mL (≈ 1.42 µM). It also gave an MIC [15] of 0.5 µg/mL (≈ 0.712 µM), an MIC [16] of 0.5 µg/mL (≈ 0.712 µM) and an MIC [17] of 0.5 µg/mL (≈ 0.712 µM). For the same compound, the MIC [18] was 3.12 µg/mL (≈ 4.45 µM), the MIC [19] was 50 µg/mL (≈ 71.2 µM) and the MIC [20] was 12.5 µg/mL (≈ 17.8 µM). It also gave an MIC [21] of 12.5 µg/mL (≈ 17.8 µM), an MIC [22] of 12.5 µg/mL (≈ 17.8 µM) and an MIC [23] of 25 µg/mL (≈ 35.6 µM). The MIC [24] was 3.12 µg/mL (≈ 4.45 µM), the MIC [25] was 3.12 µg/mL (≈ 4.45 µM) and the MIC [26] was 1.56 µg/mL (≈ 2.22 µM). It also gave an MIC [27] of 12.5 µg/mL (≈ 17.8 µM), an MIC [28] of 50 µg/mL (≈ 71.2 µM) and an MIC [29] of 0.78 µg/mL (≈ 1.11 µM). For the same compound, the MIC [30] was 50 µg/mL (≈ 71.2 µM), the MIC [31] was 3.12 µg/mL (≈ 4.45 µM) and the MIC [32] was 12.5 µg/mL (≈ 17.8 µM).
